The source of these data is paper PMC8320897, “Inhibition of PI3K and MAPK pathways along with KIT inhibitors as a strategy to overcome drug resistance in gastrointestinal stromal tumors” (PLoS ONE, 2021).

pIC50: −log10 of the molar value. Where two headings read alike, the source gives them in different places.

The inhibition is the change of the read-out against control, counted positive when it falls.

The subject of data set [1] is p-MAPK. The experiment in a line: Immunoblot analysis of p-MAPK (p-ERK). In kind it is cell-based. The conditions noted are these: 24 h.
Data set [2] has as its system metastatic GIST. The conditions noted are these: cited from earlier work; for time until resistance occurs: second-line / third-line therapy.
Data set [3] deals with GIST-T1/10R. Description: Caspase 3/7 apoptosis assay. It counts as cell-based, human. The conditions noted are these: 48 h, single agent. From the text:
(§1) Inhibitor concentrations used were as mentioned in figure legends.
(§2) Fig 4 Combined Inhibition of KIT, PI3K and MAPK signaling pathways induces apoptosis in GIST cells. […] The data is represented as percent increase over untreated cells; each column represents mean of triplicates. […] (***p<0.0001); (**p<0.001); (*p<0.05).

The subject of data set [4] is GIST-T1/670. Description: Caspase 3/7 apoptosis assay. The conditions noted are these: GIST-T1/670, 48 h; for induction of apoptosis (caspase 3/7 activity): single agent. In kind it is cell-based, human.
Description: as §1, §2

Data set [5] relates to GIST-T1. Description: Caspase 3/7 apoptosis assay. In kind it is cell-based, human. The conditions noted are these: GIST-T1, 48 h, single agent.
Description: as §1, §2

The subject of data set [6] is p-KIT. Description: Immunoblot analysis of p-KIT. It counts as cell-based. The conditions noted are these: 100 nM, GIST882, 24 h, western blot. For orientation: Immunoblotting shows a protein as a band on a membrane.
Description: (C) GIST882 cells were treated with the indicated inhibitor concentrations for 24 h and cell lysates were run on SDS-PAGE followed by immunoblotting to detect the indicated proteins. Data is representative of two independent experiments.
In data set [7] the test system is GIST-T1. Description: Cell proliferation assay (Cell Counting Kit-8), drug screen. In kind it is cell-based, human. The conditions noted are these: Homo sapiens, read-out: IC50 GIST-T1.
Data set [8] deals with imatinib sensitive cell lines. The experiment in a line: Cell proliferation assay. In kind it is cell-based. The conditions noted are these: 72 h.
The subject of data set [9] is GIST882. The experiment in a line: Cell proliferation assay (Cell Counting Kit-8), drug screen. It counts as cell-based. The conditions noted are these: Homo sapiens, read-out: IC50 GIST882. On the technique in general: Tetrazolium dyes change colour on reduction, which living cells bring about.
Data set [10] relates to GIST-T1/10R. The experiment in a line: Cell proliferation assay (Cell Counting Kit-8). In kind it is cell-based, human. The conditions noted are these: Homo sapiens, read-out: IC50 T1-10R.
Data set [11] has as its system GIST-T1/670. The experiment in a line: Cell proliferation assay (Cell Counting Kit-8). It counts as cell-based, human. The conditions noted are these: for pIC50: Homo sapiens, read-out: IC50 T1/670.
In data set [12] the test system is imatinib sensitive and resistant cell lines. The experiment in a line: Caspase 3/7 apoptosis assay of screen hits. The conditions noted are these: 24 h and 48 h; irinotecan 0.5 μM, sorafenib 500 nM, compound C 5 μM, triptolide 25 nM. As to the method: (§3) Around 10,000 cells/well were plated in complete media in 96-well white flat-bottom plates and therapeutic compounds were added 24 hours later. Apoptosis was evaluated by measuring caspase-3/7 activity using Caspase-Glo 3/7 Assay System (Promega, WI, USA) after 24 and 48 h of treatment with inhibitors. […] Inhibitor concentrations used were as mentioned in figure legends.
(§4) The data is represented as % of control; each bar represents the mean of triplicates. […] Cells were treated with inhibitors at indicated concentrations for 24 h.

For data set [13], the system named is imatinib-resistant cell lines. Description: Caspase 3/7 apoptosis assay of screen hits. The conditions noted are these: sorafenib 500 nM; both imatinib-resistant cell lines. It counts as cell-based. As for the experimental part:
as §3, §4

For data set [14], the system named is GIST cell lines. The experiment in a line: Cell proliferation assay with trametinib. The conditions noted are these: compared with PD, 72 h.
For data set [15], the system named is GIST-T1/670. The experiment in a line: Clonogenic (colony outgrowth) assay after drug removal. In kind it is cell-based, human. The conditions noted are these: single agent, 1 month treatment, 2 weeks drug-free.
Description: Cells were treated with either IM (1 μM), SU (1 μM), RE (1 μM), GDC (500 nM), PD (500 nM), trametinib (500 nM), either alone or in combination for 1 month with replacement of fresh media with drug every week. Thereafter, cells were washed with PBS twice and fresh media without inhibitors was added and colonies were allowed to grow for 2 more weeks. The colonies were stained with crystal violet and counted. Untreated wells were not revived for extra 2 weeks.
After 1-month duration of treatment, cells were allowed to grow in drug-free media for two weeks before staining with crystal violet.
Data set [16] has as its system MRC5. Description: Cell proliferation assay, control cell line. The conditions noted are these: Homo sapiens, MRC5, 72 h, read-out: IC50 MRC5.
Data set [17] concerns MCF7. Description: Cell proliferation assay, control cell line. The conditions noted are these: Homo sapiens, MCF7, 72 h, read-out: IC50 MCF7.
In data set [18] the test system is MCF7. Description: Caspase 3/7 apoptosis assay of screen hits. In kind it is cell-based. The conditions noted are these: triptolide 25 nM. As to the method: as §3, §4
Data set [19] relates to p-Akt. Description: Immunoblot analysis of p-Akt. It counts as cell-based. The conditions noted are these: 100 nM, 24 h, all cell lines tested, western blot.
[20] abbreviates: GISTT1, cell viability after 72 hours of treatment.
Where [21] appears, read: clinical trials in GIST patients.
Setting [22] is: GIST882, cell viability after 72 hours of treatment.

In the case of `Cc1ccc(NC(=O)c2ccc(CN3CCN(C)CC3)cc2)cc1Nc1nccc(-c2cccnc2)n1` [Imatinib], the “inhibition of downstream MAPK signaling” value in data set [1] (GIST-T1, IM 1 μM, western blot) was determined as 50%. The stable disease entry in data set [2] (KIT/PDGFRA-driven metastatic GIST, share of cases) is on record as “approximately 85%”. In data set [2] (prolonged exposure), the “time of treatment to secondary resistance mutations” value was 18–24 months. The “induction of apoptosis (caspase activity)” value in data set [3] is recorded as “did not show increase in caspase activity”. The “induction of apoptosis (caspase 3/7 activity)” value in data set [4] and in data set [5] was “did not induce apoptosis” in each case. Moreover, the “inhibition of p-KIT” value in data set [6] is “not sufficient to completely inhibit p-KIT”.
As for `O=C(NOC[C@H](O)CO)c1ccc(F)c(F)c1Nc1ccc(I)cc1F` [PD325901], the pIC50 in data set [7] (GISTT1, 72 h) is 6.30; in data set [9] (GIST882, 72 h), 6.30; in [10] (GISTT1, 72 h), 6.00; in data set [11] (GISTT1, 72 h), 6.00. In addition, the “inhibition of p-MAPK” value in [1] (100 nM, any of the cell lines tested, western blot) was “not sufficient to inhibit”. Moreover, the inhibition at 0.5 µM in [1] (read-out: inhibition of p-MAPK) was approximately 80%. The “concentration that inhibited the proliferation of imatinib sensitive cell lines” value in data set [8] is less than 0.5 µM. The “increase in apoptosis (caspase 3/7 activity)” value in [4] (over untreated cells) is listed as “about two”.
`CNC(=O)c1cc(Oc2ccc(NC(=O)Nc3ccc(Cl)c(C(F)(F)F)c3)cc2)ccn1` [Sorafenib]: the pIC50 is 7.60 in data set [7] (setting [20]), more than 7.00 in data set [9] (setting [22]), 6.70 in [10] (setting [20]) and more than 6.30 in data set [11] (setting [20]). Also, the “overall progression free survival” value in data set [2] (setting [21]) is less than 6 mo. For the same compound, the overall response rate in data set [2] (setting [21]) was less than 10%. Further, in data set [12], the “cytotoxic effects (caspase 3/7 activity)” value is recorded as not below 2 fold. The “increase in apoptosis (caspase 3/7 activity)” value in data set [13] is 4–8 fold.
In the case of `CC(=O)Nc1cccc(-n2c(=O)n(C3CC3)c(=O)c3c(Nc4ccc(I)cc4F)n(C)c(=O)c(C)c32)c1` [TR, trametinib], the “inhibition of cell proliferation as a single agent” value in data set [14] was “better at inhibiting cell proliferation than PD”.
As to `CCN(CC)CCNC(=O)c1c(C)[nH]c(/C=C2\C(=O)Nc3ccc(F)cc32)c1C` [Sunitinib], the pIC50 in data set [7] (setting [20]) was 7.60; in [9] (setting [22]), more than 6.70; in data set [10] (setting [20]), less than 5.00; in data set [11] (setting [20]), less than 5.00. In addition, the “time until resistance occurs” value in data set [2] is recorded as 6–12 months. Further, in data set [15], the “suppression of colony outgrowth” value was “effective”. The “induction of apoptosis (caspase activity)” value in [3] is recorded as “did not induce apoptosis”. In [5], the “induction of apoptosis (caspase 3/7 activity)” value is “not effective”. In addition, in data set [11] (GIST-T1/670, S1A Fig), the “sensitivity of cell line (proliferation)” value is on record as “sensitive”.
`CNC(=O)c1cc(Oc2ccc(NC(=O)Nc3ccc(Cl)c(C(F)(F)F)c3)c(F)c2)ccn1` [Regorafenib]: the pIC50 in [16] is less than 5.00; in [7] (setting [20]), more than 7.00; in [9] (setting [22]), more than 7.00; in data set [10] (setting [20]) it was 6.00; in [17], less than 5.00; in [11] (setting [20]), 6.00. In addition, the “time until resistance occurs” value in data set [2] is on record as 6–12 months. In addition, the “induction of apoptosis (caspase 3/7 activity)” value in data set [4] was “able to induce apoptosis effectively”; in data set [5], “did not induce apoptosis”.
For the compound `CC(C)[C@]12O[C@H]1[C@@H]1O[C@]13[C@]1(O[C@H]1C[C@H]1C4=C(CC[C@@]13C)C(=O)OC4)[C@@H]2O` [Triptolide], the pIC50 is 8.00 in data set [16]; more than 8.00 in data set [7] (setting [20]); more than 8.00 in data set [9] (setting [22]); more than 7.60 in data set [10] (setting [20]); less than 5.00 in data set [17]; more than 7.60 in [11] (setting [20]). Further, the “concentration that inhibited the proliferation of imatinib sensitive cell lines” value in [8] was less than 0.5 µM. Besides, in data set [12], the “cytotoxic effects (caspase 3/7 activity)” value is listed as not below 2 fold. Besides, in data set [18], the “cytotoxicity (caspase 3/7 activity) in MCF7” value was “showed cytotoxicity”.
`CS(=O)(=O)N1CCN(Cc2cc3nc(-c4cccc5[nH]ncc45)nc(N4CCOCC4)c3s2)CC1` [GDC-0941]: the pIC50 in [7] (setting [20]) is 6.52; in data set [9] (setting [22]), 6.30; in [10] (setting [20]) it was less than 6.00; in [11] (setting [20]), less than 6.00. Further, in data set [19], the “inhibition of phosphorylation of Akt” value is recorded as “inhibits phosphorylation of Akt”. Further, the “induction of apoptosis (caspase 3/7 activity)” value in data set [4] is “did not induce apoptosis”.
